# System: NF-κB pathway
# Assay: NF-κB activation assay, A549 cells with SEAP reporter
# Type: cell-based, Human
# Conditions: for NF-κB activation (optical density, 630 nm): 24 hours after dosing; for NF-κB activation (optical density, 630 nm) / NF-κB activation in words: A549 cells; for NF-κB activation in words: 50 and/or 500 nM; for NF-κB activation in words / NF-κB activation, times the basal level (DMSO control): 24 hours
# Excerpt: As a high-throughput method of screening compounds for their ability to get into cells and activate immunological pathways related to HIV latency reversal ([46], [70]), we conducted an NF-κB reporter assay using A549 cells stably integrated with a secreted embryonic alkaline phosphatase reporter under the control of a promoter fused to five NF-κB binding sites (Fig. 7B) ([48], [70], [71]).
# Human A549-Dual™ Cells supplied by InvivoGen (Cat. code a549d-nfis) and CHO-K1 cells were passaged when about 90% confluency was reached (approximately every three days). With each passage, media was aspirated from the cell layer, which was then washed with PBS. Following aspiration of the PBS, cells were detached from the culture flask with 0.25% GibcoTM Trypsin-EDTA and transferred to a 50 mL conical, which was volumed up with complete pre-warmed DMEM (4.5 g/L glucose, 10% FBS, and 1% Pen-Strep-Glutamine (100 X, 50 mg/mL)) or Ham's F-12K (Kaighn's) Medium supplemented with 10% FBS and 1% Pen-Strep (100 X, 50 mg/mL).
# This conical was spun down at 1800 rpm for 3 minutes, the supernatant was removed, and cells were resuspended in their respective fresh, pre-warmed media. To count cells, 10 μL of resuspended cells were added to a sterile microcentrifuge tube and mixed with 10 μL of trypan blue after which 10 μL of the mixture was pipetted into a Countess chamber slide. A Countess™ 3 Automated Cell Counter was subsequently utilized to determine cell viability and concentration.
# 1 x 10^6 cells were seeded with each passage into a T75 culture flask, and cells were incubated at […]
# Human A549 lung carcinoma cells (InvivoGen Cat. code a549d-nfis), stably integrated with a secreted embryonic alkaline phosphatase (SEAP) reporter, allow for the activity of the NF-κB pathway to be monitored. The SEAP reporter is under control of the interferon β (IFN-β) minimal promoter, which is fused to five NF-κB binding sites.
# 5 × 10^4 A549 cells were plated on Corning® 96 Well TC-Treated Microplates (CLS3595) in 180 μl of pre-warmed DMEM (4.5 g/L glucose, 10% heat-inactivated FBS (30 min at 56 ℃), and 1% Pen-Strep-Glutamine (100 X, 50 mg/mL)). Note that if cells were grown in media containing FBS that is not heat-inactivated, media will contain alkaline phosphatase. In this case, all supernatant must thoroughly be aspirated from the cell pellet obtained after centrifugation before resuspending cells in media containing heat inactivated FBS for plating. Following incubation at 37 °C in 5% CO2 for approximately 24 hours to allow for cell adherence onto the 96 well plate, 1.8 μL of each compound dissolved in DMSO was added in quadruplicate to their respective wells to achieve a final compound concentration of 1500 nM, 500 nM, or 50 nM. 1.8 μL of DMSO was added to wells as negative controls while wells treated with EBC-46 served as positive controls. 24 hours following compound addition, 180 μL of QUANTI-BlueTM Solution (InvivoGen Cat. code rep-qbs)- medium containing QB buffer and QB Reagent for detection and quantification of alkaline phosphatase- were added into wells on a new clear flat-bottom 96-well plate. 20 μL of supernatant of either SEAP-expressing cells incubated with compound or SEAP-expressing cells incubated with DMSO only were added to the wells in the new 96-well plate containing QUANTI-BlueTM Solution. Supernatant and QUANTI-BlueTM Solution were incubated at 37 °C in 5% CO2 for approximately an hour and a half. Following incubation, optical density (OD) at 630 nm was measured for each well using a BioTek Synergy H1 microplate reader under normal read speed and with a delay of 100 msec.
Compound,"NF-κB activation (optical density, 630 nm) (50 nM)","NF-κB activation (optical density, 630 nm) (500 nM)",NF-κB activation in words,"NF-κB activation, times the basal level (DMSO control) (50 nM)","NF-κB activation, times the basal level (DMSO control) (500 nM)"
C/C=C(\C)C(=O)O[C@@H]1[C@@H](C)[C@@]2(O)[C@H]([C@@H]3C(C)(C)[C@]13OC(=O)[C@H](C)CC)[C@@H]1O[C@]1(CO)[C@@H](O)[C@]1(O)C(=O)C(C)=C[C@H]12 [SUW407],"0.42 optical density, 630 nm","0.60 optical density, 630 nm",comparable activity to EBC-46 at 50 and 500 nM,,
C/C=C(\C)C(=O)O[C@@H]1[C@@H](C)[C@]2(O)[C@@H]3C=C(C)[C@H](OC(=O)C=C(C)C)[C@@]3(O)[C@H](O)C(CO)=C[C@H]2[C@@H]2C(C)(C)[C@]12OC(=O)[C@@H](C)CC [SUW425],"0.34 optical density, 630 nm","0.47 optical density, 630 nm",minimal NF-κB activation at both 50 and 500 nM,,
CC[C@H](C)C(=O)O[C@@]12[C@H](OC(=O)C3(C)CC3)[C@@H](C)[C@@]3(O)[C@H]([C@@H]1C2(C)C)[C@@H]1O[C@]1(CO)[C@@H](O)[C@]1(O)C(=O)C(C)=C[C@H]13 [SUW413],"0.40 optical density, 630 nm","0.70 optical density, 630 nm",comparable activity to EBC-46 at 50 and 500 nM,,
C/C=C(\C)C(=O)O[C@@H]1[C@@H](C)[C@]2(O)[C@@H]3C=C(C)[C@H](OC(=O)c4ccccc4)[C@@]3(O)[C@H](O)C(CO)=C[C@H]2[C@@H]2C(C)(C)[C@]12OC(=O)[C@@H](C)CC [SUW422],"0.26 optical density, 630 nm","0.36 optical density, 630 nm",minimal NF-κB activation at both 50 and 500 nM,,
CC=C(C)C(=O)OC1C(C)C2(O)C(C3OC3(COC)C(O)C3(O)C(=O)C(C)=CC32)C2C(C)(C)C12OC(=O)C(C)CC (stereo not drawn) [SUW426],"0.23 optical density, 630 nm","0.23 optical density, 630 nm",did not exhibit NF-κB activation at either concentration tested,,
C/C=C(\C)C(=O)O[C@@H]1[C@@H](C)[C@]2(O)[C@@H]3C=C(C)C(=O)[C@@]3(O)[C@H](O)C(CO)=C[C@H]2[C@@H]2C(C)(C)[C@]12OC(=O)[C@@H](C)CC [SUW400],"0.41 optical density, 630 nm","0.67 optical density, 630 nm",comparable activity to EBC-46 at 50 and 500 nM,,
CC[C@H](C)C(=O)O[C@@]12[C@H](OC(C)(C)C)[C@@H](C)[C@@]3(O)[C@H]([C@@H]1C2(C)C)[C@@H]1O[C@]1(CO)[C@@H](O)[C@]1(O)C(=O)C(C)=C[C@H]13 [SUW430],"0.30 optical density, 630 nm","0.67 optical density, 630 nm",performed comparably to EBC-46 at both concentrations,,
C/C=C(\C)C(=O)O[C@@H]1[C@@H](C)[C@@]2(O)[C@H]([C@@H]3C(C)(C)[C@]13OC(=O)Cc1cccc3ccccc13)[C@@H]1O[C@]1(CO)[C@@H](O)[C@]1(O)C(=O)C(C)=C[C@H]12 [SUW431],"0.74 optical density, 630 nm","0.65 optical density, 630 nm",strong activation of NF-κB at higher concentrations but with an inverse dose response,approximately three,
C/C=C(\C)C(=O)O[C@@H]1[C@@H](C)[C@@]2(O)[C@@H](C=C(CO)C[C@]3(O)C(=O)C(C)=C[C@@H]23)[C@@H]2C(C)(C)[C@]12OC(=O)[C@@H](C)CC [SUW402],"0.71 optical density, 630 nm","0.63 optical density, 630 nm",strong activation of NF-κB at higher concentrations but with an inverse dose response,approximately three,
CC=C(C)C(=O)OC1C(C)C2(O)C(C3OC3(CO)CC3(O)C(=O)C(C)=CC32)C2C(C)(C)C12OC(=O)C(C)CC (stereo not drawn) [SUW403],"0.39 optical density, 630 nm","0.67 optical density, 630 nm",comparable activity to EBC-46 at 50 and 500 nM,,
C/C=C(\C)C(=O)O[C@@H]1[C@@H](C)[C@@]2(O)[C@H]([C@@H]3C(C)(C)[C@]13OC(=O)C1CCC1)[C@@H]1O[C@]1(CO)[C@@H](O)[C@]1(O)C(=O)C(C)=C[C@H]12 [SUW406],"0.38 optical density, 630 nm","0.57 optical density, 630 nm",comparable activity to EBC-46 at 50 and 500 nM,,
C/C=C(\C)C(=O)O[C@@H]1[C@@H](C)[C@@]2(O)[C@H]([C@@H]3C(C)(C)[C@]13OC(=O)N1CCCC1)[C@@H]1O[C@]1(CO)[C@@H](O)[C@]1(O)C(=O)C(C)=C[C@H]12 [SUW421],"0.30 optical density, 630 nm","0.31 optical density, 630 nm",minimal activity in this assay at 50 and 500 nM,,
"C/C=C(\C)C(=O)O[C@@H]1[C@@H](C)[C@@]2(O)[C@H]([C@@H]3C(C)(C)[C@]13OC(=O)[C@@H](C)CC)[C@@H]1O[C@]1(CO)[C@@H](O)[C@]1(O)C(=O)C(C)=C[C@H]12 [EBC-46, Tigilanol tiglate]","0.35 optical density, 630 nm","0.69 optical density, 630 nm",minimal activation of NF-κB relative to the dimethyl sulfoxide (DMSO) control,,~ 2.5 times
C/C=C(\C)C(=O)O[C@@H]1[C@@H](C)[C@@]2(O)[C@H]([C@@H]3C(C)(C)[C@]13OC(=O)c1ccccc1)[C@@H]1O[C@]1(CO)[C@@H](O)[C@]1(O)C(=O)C(C)=C[C@H]12 [SUW428],"0.31 optical density, 630 nm","0.43 optical density, 630 nm",less effective at inducing NF-κB activation than EBC-46 at 500 nM,,
CC[C@H](C)C(=O)O[C@@]12[C@H](OC(=O)N3CCCC3)[C@@H](C)[C@@]3(O)[C@H]([C@@H]1C2(C)C)[C@@H]1O[C@]1(CO)[C@@H](O)[C@]1(O)C(=O)C(C)=C[C@H]13 [SUW424],"0.34 optical density, 630 nm","0.34 optical density, 630 nm",minimal activity in this assay at 50 and 500 nM,,

# — publication PMC11778240, “Synthesis and preclinical evaluation of tigilanol tiglate analogs as latency-reversing agents for the eradication of HIV” (Science Advances, 2025)
